Results reported in patent US20100292233A1, “DIHYDRO-1H-PYRROLO[1,2-A]INDOL-1-YL CARBOXYLIC ACID DERIVATIVES WHICH ACT AS S1P1 AGONISTS” (ARENA PHARMACEUTICALS, INC., priority 2008, published 2010).

What was measured:
[1] = system: C57BL/6 mice; test: MOG-induced EAE in mice; assay type: in vivo, mouse; conditions: oral, once a day from day 3 until day 21; 1, 3 and 10 mg/kg; FIG. 3
Experimental: (§1) Animals: Female C57BL/6 mice (8 to 10 weeks of age at start of study) (Jackson Laboratory, Bar Harbor, Me.) were housed four per cage and maintained in a humidity—(40-60%) and temperature—(68-72° F.) controlled facility on a 12 hr:12 hr light/dark cycle (lights on at 6:30 am) with free access to food (Harlan Teklad, Orange, Calif., Rodent Diet 8604) and water. Mice were allowed one week of habituation to the animal facility before testing.
Induction of EAE: Mice were immunized subcutaneously, 50 μL per hind flank, with a total of 100 μg MOG35-55 peptide emulsified 1:1 with Complete Freund's adjuvant containing 4 mg/mL heat-killed Mycobacterium tuberculosis. Mice also received 200 ng pertussis toxin intraperitoneally on the day of immunization and 48 hours later.
Clinical scoring: Severity of disease symptoms was scored as follows (in increasing order of severity): 0=normal; 1=limp tail OR hind limb weakness; 2=limp tail AND limb weakness/weakness of 2 or more limbs; 3=severe limb weakness or single limb paralysis; 4=paralysis of 2 or more limbs; 5=death.
Drug treatment: Mice were dosed orally, with vehicle or test compound, once a day from day 3 until day 21. Dosing volume is 5 mL/kg. […] Mice were monitored daily from day 7 onward for disease symptoms. After the last dose on day 21, disease progression was monitored daily for 2 more weeks.

[2] = system: NOD/Ltj mice; test: Cyclophosphamide induced type 1 diabetes in mice; assay type: in vivo, mouse; conditions: oral, once a day from day 0 until day 25; 3 and 10 mg/kg; FIG. 6
Experimental: Animals: Baseline blood glucose measurements were taken from 9-10 week old female NOD/Ltj mice (Jackson Laboratory, Bar Harbor, Me.) to ensure that they are normoglycemic (blood glucose is 80-120 mg/dL) prior to initiation of the experiment. Blood glucose was measured from tail bleeds using a One Touch Ultra® kit and test strips (LifeScan, Milpitas, Calif.).
Cyclophosphamide induction of Type 1 diabetes: On day 0 and day 14, normoglycemic NOD mice were injected intraperitoneally with 4 mg cyclophosphamide monohydrate (200 mg/kg) dissolved in 0.9% saline. If mice were diabetic (blood glucose is >250 mg/dL) they were not given a booster dose of cyclophosphamide on day 14.
Drug Treatment: Mice were dosed orally, with vehicle or test compound, once a day from day 0 until day 25. Compounds were suspended in 0.5% methyl cellulose vehicle using a sonicator to ensure uniform suspension. Mice were weighed twice weekly and were dosed according to weight. Dosing volume is 5 mL/kg. Test compound was dosed at 3 mg/kg and 10 mg/kg. Blood glucose was measured twice weekly. After dosing was completed at day 25, the mice continued to be monitored and blood glucose measurements were taken once a week for 3 weeks.

[3] = system: C57BL/6 mice; test: Mouse skin allograft survival; assay type: in vivo; conditions: oral, once a day; 1, 3 and 10 mg/kg; FIG. 5
Experimental: as §1, with “BALB/cJ” for “C57BL/6”, “(6” for “(8”, “7” for “10”, “water. Female C57BL/6 mice (8 to 10 weeks of age at start of study) (Jackson Laboratory, Bar Harbor, Me.) were similarly housed and maintained.” for “water.”, “testing. […]” for “testing.”
Clinical scoring: Skin allografts were inspected and digital images recorded daily until rejection, which was defined as the first day on which more than 80% of the graft is necrotic. […] In an optional related study, on posttransplantation day 5 isolated lymphocytes from peripheral lymph nodes and spleen were counted and characterized for activation markers (e.g., T-cell activation markers) by flow cytometry. Also on day 5, grafts were removed from transplanted recipients, cut into small fragments, digested with collagenase and sedimented over Ficoll-Paque (Pharmacia Biotech, Uppsala, Sweden) to isolate graft-infiltrating lymphocytes, which were counted and characterized for activation markers (e.g., T-cell activation markers) by flow cytometry. […]

[4] = system: Lewis rats; test: Collagen-induced arthritis in rats (ankle diameter); assay type: in vivo; conditions: rat, p.o., q.d., day 0 through day 16; 1, 3 and 10 mg/kg; FIG. 4
Experimental: Female Lewis rats were used in this study. Acclimated animals were anesthetized with isoflurane and given the first collagen injection (day 0). On day 6, they were anesthetized again for the second collagen injection. Collagen was prepared by making a 4 mg/mL solution in 0.01 N acetic acid. Equal volumes of collagen and incomplete Freund's adjuvant were emulsified by hand mixing until a bead of this material held its form when placed in water. Each animal received 300 μL of the mixture each time, spread over 3 subcutaneous sites on the back.
Treatment (p.o., q. d., 5 mL/kg dosing volume) began on day 0 and continued through day 16 with vehicle or compounds given at 24 h intervals. Rats were weighed on days 0, 3, 6 and 9 through 17 and caliper measurements of the ankles taken on days 9 through 17. The 2nd enantiomer of Compound 2 (isolated after resolution of compound 2 by HPLC, with a retention time of 14.9 min per the conditions reported in Example 1.25) was dosed at 1, 3 and 10 mg/kg.

N#Cc1cc(OC(F)(F)F)cc(-c2nc(-c3ccc4c(c3)cc3n4CCC3CC(=O)O)no2)c1 (stereo not drawn) [2nd enantiomer of Compound 2, 2-(7-(5-(3-Cyano-5-(trifluoromethoxy)phenyl)-1,2,4-oxadiazol-3-yl)-2,3-dihydro-1H-pyrrolo[1,2-a]indol-1-yl)acetic Acid]
activity in the mouse EAE assay (severity of disease symptoms vs vehicle) [1]: exhibited activity in the mouse EAE assay
activity in the mouse type I diabetes assay (blood glucose vs vehicle) [2]: exhibited activity in the mouse type I diabetes assay
activity in the mouse skin allograft assay (time of rejection vs vehicle) [3]: exhibited activity in the mouse skin allograft assay
reduction of mean ankle diameter vs vehicle [4]: exhibited activity for reducing mean ankle diameter
